One series concerns the target T1, MDR1 (Homo sapiens, UniProt P08183).
T1 construct: expressed in transfected cells; host or cells: MDCK-MDR1 cells (MDCK host)
The series is described as follows: MDCK-MDR1 permeability / efflux assay. Conditions: dog, MDCK-MDR1, pH 7.4, MDCK-MDR1, 1 μM, 2 hours; Table 3; read-out: MDCK-MDR1 Efflux ratio. The series is classed as in vitro ADME, canine. On the procedure:
To prepare transport buffer (HBSS with 10 mM HEPES, pH 7.4), 2.383 g of HEPES and 0.35 g sodium hydrogen carbonate was accurately weighed and added into 900 mL of pure water, then sonicated to dissolve the content. Into the solution was transferred 100 mL of 10×HBSS, and the solution was placed on a stirrer. The pH of the solution was slowly adjusted with sodium hydroxide to 7.4, followed with filtering.
MDCK-MDR1 plate(s) were removed from the incubator. The monolayer was washed the monolayer twice with pre-warmed HBSS (10 mM HEPES, pH 7.4). Then the plate(s) were incubated at 37° C. for 30 minutes.
Propranolol was used as the high permeability marker. Digoxin was used as the substrate of […] (MDR1). Stock solutions of test compound(s) and digoxin in DMSO at 0.2 mM were prepared and diluted with HBSS (10 mM HEPES, pH 7.4) to get 1 μM working solutions. Stock solutions of propranolol in DMSO at 1 mM was prepared and diluted with HBSS (10 mM HEPES, pH 7.4) to get 5 μM working solutions.
To determine the rate of drug transport in the apical to basolateral direction, 125 μL of the working solution was added to the Transwell insert (apical compartment), and a 50 μL sample was immediately transferred from the apical compartment to 200 μL quenching solvents (acetonitrile with 100 nM alprazolam, 200 nM caffeine, 200 nM labetalol and 100 nM tolbutamide) in a new 96-well plate as the initial donor sample (A-B). The plate was shaken at 1000 rpm for 10 minutes. The wells in the receiver plate (basolateral compartment) were filled with 235 μL of transport buffer. All incubations were performed in duplicate.
To determine the rate of drug transport in the basolateral to apical direction, 285 μL of the 1 μM working solution was added to the receiver plate wells (basolateral compartment), and a 50 μL sample was immediately transferred from the basolateral compartment to 200 μL quenching solvents (acetonitrile with 100 nM alprazolam, 200 nM caffeine, 200 nM labetalol and 100 nM tolbutamide) in a new 96-well plate as the initial donor sample (B-A). Shake the plate at 1000 rpm 10 minutes. The Transwell insert (apical compartment) was filled with 75 μL of transport buffer. The apical to basolateral direction and the basolateral to apical direction were done at the same time.
The Transwell insert plate was inserted into the basolateral plate, transferred into the incubator and incubated at 37° C. for 2 hours.
At the end of the incubation, 50 μL samples from donor sides (apical compartment for Ap→Bl flux, and basolateral compartment for Bl→Ap flux) and receiver sides (basolateral compartment for Ap→Bl flux, and apical compartment for Bl→Ap flux) were transferred to wells of a new 96-well plate, followed by the addition of 4 volume of quenching solvents (acetonitrile with 100 nM alprazolam, 200 nM caffeine, 200 nM labetalol and 100 nM tolbutamide). Samples were Vortexed for 10 minutes and then centrifuged at 3,220 g for 40 minutes. An aliquot of 100 μL of the supernatant was mixed with an appropriate volume of ultra-pure water before LC-MS/MS analysis.
To determine the Lucifer yellow leakage after 2-hour transport period, Lucifer yellow working solutions were prepared by diluting the stock solution with HBSS (10 mM HEPES, pH 7.4) to reach the final concentration of 100 μM. To the apical compartment, 100 μL of the Lucifer yellow solution were added. The plate(s) were incubated at 37° C. for 30 minutes and 80 μL was directly removed from the apical and basolateral wells and transferred to new 96 wells plates. Lucifer yellow fluorescence (to monitor monolayer integrity) was measured in a fluorescence plate reader at 485 nm excitation and 530 nm emission.

Series [1] is described as follows: General solubility protocol (PBS, pH 7.4). The series is classed as physicochemical. Conditions: PBS buffer, aqueous buffer, kinetic from dmso stock, pH 7.4, 25° C. On the procedure: Into a 96-well rack, 15 μL of stock solution (10 mM) of each sample was placed. Into each vial of a cap-less Solubility Sample plate 485 μL of buffer was added. The assay was performed in duplicate. To each vial one stir stick was added and each vial was sealed using a molded PTFE/Silicone plug. The Solubility Sample plate was then transferred to an Eppendorf Thermomixer Comfort plate shaker and shake at 25° C. at 1100 RPM for 2 hours. […] Using a vacuum manifold, all the samples were filtered. An aliquot of 5 μL was taken from the filtrate and 5 μL blank DMSO followed by addition of 490 μL of a mixture of H2O and acetonitrile containing an internal standard (1:1). The dilution factor may be changed according to the solubility value and the LC/MS signal response.

The next series deals with HCT116 colorectal cells. The series is described as follows: Cell viability assay (CellTiter-Glo) in HCT116 cells. As to conditions: Homo sapiens, HCT-116, 72h, CellTiter-Glo, read-out: HCT116 Assay (IC50). The series is classed as cell-based. The method, then: HCT116 colorectal cells were used in these experiments. HCT116 cells were obtained from ATCC. The CellTiter-Glo® Luminescent Cell Viability Assay Reagent was obtained from Promega.
Into a 96-well plate, 3000 HCT116 cells were seeded with 100 μL of media (McCoy's 5A Medium supplemented with 10% FBS, 100 units penicillin, and 100 μg streptomycin per mL) 24h before the experiment. For compound treatment, the liquid handling system-Pico machine was used to prepare all the compounds. Each master plate contained serial dilution of 2 compounds, including the control compound E7820. 10 mM compound stock was added to each well of the assay plate to give final concentrations of […], 0.003, 0.002 and 0 μM. Each concentration was tested in triplicate. After 72h, cell viability was determined using CellTiter-Glo Luminescent Cell Viability Assay Reagent following the manufacturer's recommended protocol. Briefly, equilibrate the assay plate and its contents at room temperature for approximately 30 minutes. 100 μL of CellTiter-Glo reagent was added to each well of the assay plate and the contents were mixed for 2 minutes at 500 rpm on an orbital shaker to induce cell lysis (Fisherbrand). The plate was incubated at room temperature for 10 minutes to stabilize luminescent signal. Then the plate was immediately placed in a plate reader (PerkinElmer Multimode Plate Reader Envision2105) and the luminescence signal (0.5 second per well integration time) was determined. IC50 values were calculated using Graphpad Prism 9 software.
Cell viability assays were performed to compare the potency of Compound 1 to Compound 143.

Series [2] can be described thus: Liver microsomes stability, mouse. The series is classed as in vitro ADME. As to conditions: 1 μM, Table 3, read-out: Metabolic Stability Half-life, mouse. The method, then: (§1) A 100 μM test compound solution and PC solution (verapamil) was prepared by adding 2 μL of 10 mM stock solution in DMSO to 198 μL of 50% acetonitrile/50% water.
(§2) Two separate experiments were performed as follows:
(§3) a) With Cofactors (NADPH): 25 μL of 10 mM NADPH was added to the incubations. The final concentrations of microsomes and NADPH were 0.5 mg/mL and 1 mM, respectively.
(§4) b) Without Cofactors (NADPH): 25 μL of 100 mM Phosphate buffer was added to the incubations. The final concentration of microsomes was 0.5 mg/mL. The mixture was pre-warmed at 37° C. for 10 minutes.
(§5) The reaction was started with the addition of 2.5 μL of 100 µM control compound or test compound solutions. Verapamil was used as positive control in this study. The final concentration of test compound or control compound was 1 μM. The incubation solution was incubated in a water bath at 37° C.
(§6) Aliquots of 30 μL were taken from the reaction solution at 0.5, 15, 30, 45 and 60 minutes. The reaction was stopped by the addition of 5 volumes of cold acetonitrile with IS (100 nM alprazolam, 200 nM caffeine and 100 nM tolbutamide).
(§7) Samples were then centrifuged at 3,220 g for 40 minutes. An aliquot of 100 μL of the supernatant was mixed with 100 μL of ultra-pure H2O and then used for LC-MS/MS analysis.
(§8) Single dose PK parameters were also determined for Compound 143, a deuterated derivative of Compound 1, according to the methods described herein. […] Metabolic stability was assessed by measuring the half-life of the test compounds in human and mouse liver microsomes.

Series [3] can be described thus: Liver microsomes stability, human. Conditions: 1 μM, Table 3, read-out: Metabolic Stability Half-life, human. The series is classed as in vitro ADME. On the procedure:
as §1, §2, §3, §4, §5, §6, §7, §8
Background: Liver microsomes are vesicles of endoplasmic reticulum, rich in cytochrome P450 enzymes.

pIC50: −log10 of the molar value. Values after ≈ are worked out from the molar mass of the structure shown.

Usually solubility stands for the dissolved amount per volume that the medium holds. Low readings indicate a poorly soluble substance, high ones a readily soluble substance. Usually pIC50 stands for −log10 of the IC50, conventionally taken in molar units. Usually half-life stands for how long it takes for the measured level to halve.

T1 sequence (P08183 whole entry): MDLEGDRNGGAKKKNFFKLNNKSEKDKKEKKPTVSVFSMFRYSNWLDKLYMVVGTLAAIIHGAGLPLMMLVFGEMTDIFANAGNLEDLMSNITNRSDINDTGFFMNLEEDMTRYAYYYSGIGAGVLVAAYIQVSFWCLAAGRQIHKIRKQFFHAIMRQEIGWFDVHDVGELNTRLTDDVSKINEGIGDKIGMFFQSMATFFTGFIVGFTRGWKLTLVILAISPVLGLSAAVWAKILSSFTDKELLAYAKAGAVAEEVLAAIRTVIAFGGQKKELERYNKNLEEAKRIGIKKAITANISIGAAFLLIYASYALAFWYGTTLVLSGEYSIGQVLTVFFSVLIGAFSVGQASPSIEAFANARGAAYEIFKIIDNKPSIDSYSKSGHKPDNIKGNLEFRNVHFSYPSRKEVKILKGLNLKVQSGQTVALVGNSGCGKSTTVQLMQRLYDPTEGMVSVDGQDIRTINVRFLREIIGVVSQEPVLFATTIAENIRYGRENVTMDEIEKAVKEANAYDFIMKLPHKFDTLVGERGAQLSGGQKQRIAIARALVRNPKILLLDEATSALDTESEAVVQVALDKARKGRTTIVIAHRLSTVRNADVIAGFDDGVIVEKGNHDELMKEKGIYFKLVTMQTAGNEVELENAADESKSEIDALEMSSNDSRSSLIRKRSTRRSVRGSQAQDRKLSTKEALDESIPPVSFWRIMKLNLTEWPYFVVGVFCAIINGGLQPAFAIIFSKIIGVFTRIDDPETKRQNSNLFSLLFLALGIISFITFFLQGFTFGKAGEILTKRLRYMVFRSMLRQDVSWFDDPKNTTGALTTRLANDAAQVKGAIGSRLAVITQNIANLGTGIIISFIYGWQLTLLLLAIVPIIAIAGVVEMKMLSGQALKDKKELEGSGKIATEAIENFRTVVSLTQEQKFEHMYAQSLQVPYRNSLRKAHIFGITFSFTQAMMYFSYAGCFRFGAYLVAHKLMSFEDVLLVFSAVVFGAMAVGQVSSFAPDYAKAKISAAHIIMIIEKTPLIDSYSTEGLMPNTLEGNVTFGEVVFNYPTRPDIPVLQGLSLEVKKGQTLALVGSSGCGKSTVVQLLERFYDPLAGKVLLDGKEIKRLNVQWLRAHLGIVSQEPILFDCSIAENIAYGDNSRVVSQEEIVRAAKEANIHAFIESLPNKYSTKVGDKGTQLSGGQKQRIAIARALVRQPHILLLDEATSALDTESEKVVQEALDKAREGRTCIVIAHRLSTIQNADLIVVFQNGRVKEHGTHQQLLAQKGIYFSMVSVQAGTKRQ

Regarding `Cc1ncc(S(=O)(=O)Nc2ccc(C)c3c(C#N)c[nH]c23)o1` [Compound 2, N-(3-cyano-4-methyl-1H-indol-7-yl)-2-methyl-oxazole-5-sulfonamide], on MDR1, the efflux ratio at 2 h, 1 µM worked out at 6.74. This compound registered a solubility at 2 h in series [1] of 292 µM (≈ 92.4 µg/mL). In addition, in the series on HCT116 colorectal cells, the pIC50 was greater than 6.30. The figures for the half-life at 1 µM in series [2] and in series [3] were 2.68 h and greater than 3.85 h, respectively.
`Cc1ncc(S(=O)(=O)Nc2ccc(C)c3c(Cl)c[nH]c23)s1` [Compound 20, N-(3-chloro-4-methyl-1H-indol-7-yl)-2-methyl-thiazole-5-sulfonamide]: at MDR1, the efflux ratio at 2 h, 1 µM was found to be 1.11. In series [1], this compound had a solubility at 2 h of 1.91 µM (≈ 0.653 µg/mL). Also, in the series with HCT116 colorectal cells, the negative-log IC50 (pIC50) is greater than 6.30. Also, the half-life at 1 µM in series [3] came out at 0.396 h.
As to `Cc1ccc(NS(=O)(=O)c2ccn3ccnc3c2)c2[nH]cc(C#N)c12` [Compound 39], on MDR1, the efflux ratio at 2 h, 1 µM was determined as 50.1. This compound also displayed a solubility at 2 h in series [1] of 1.24 µM (≈ 0.436 µg/mL). Besides, the half-life at 1 µM in series [2] amounted to 0.566 h; in series [3], 1.16 h.
Turning to `Cc1cc(S(=O)(=O)Nc2ccc(C)c3c(C#N)c[nH]c23)sn1` [Compound 57], the efflux ratio at 2 h, 1 µM on MDR1 was 4.84. This compound showed a solubility at 2 h in series [1] of 294 µM (≈ 97.6 µg/mL). For the same compound, the pIC50 with HCT116 colorectal cells is greater than 6.30. In addition, the half-life at 1 µM in series [2] stood at 1.02 h; in series [3] it was 0.557 h.

The record behind these values is patent US20260116874A1, “HETEROAROMATIC INDOLESULFONAMIDES” (SEED Therapeutics, Inc., priority 2023, published 2026).
